{"source": "patent US6613762B2", "about": "“Gambogic acid, analogs and derivatives as activators of caspases and inducers of apoptosis” (Cytovia, Inc., priority 1999, dated 2003)", "key": {"[1]": {"system": "HL-60 cells", "experiment": "Inhibition of cell proliferation (GI50) and cell death (LC50), HL-60", "format": "cell-based", "conditions": "HL-60, 48 h", "method": "(§1) T47D, ZR-75-1, PC-3, human prostate cancer cell line DU-145, human non-small cell lung cancer cell line A-549, human small cell lung cancer cell line SHP-77, HL-60 and MRC-5 cells were grown and harvested as in Example 90. […] The samples were mixed by agitation and incubated at 37° C. for 2-4 h in a 5% CO2-95% humidity incubator. […] This determines the possible background absorbance of the test compounds. No absorbance for gambogic acid or its analogs or derivatives was found at 490 nm. After the 2-4 h incubation, the samples were read for absorbance as above (ATest).\n(§2) Baseline for GI50 (dose for 50% inhibition of cell proliferation) and LC50 (dose for 50% cell death) of initial cell numbers was determined by adding an aliquot of 90 μl of cells or 90 μl of media, respectively, to wells of a 96-well microtiter plate containing 10 μl of a 10% DMSO in RPMI-1640 media solution. […] The samples were mixed by agitation and incubated at 37° C. for 2-4 h in a 5% CO2-95% humidity incubator. Absorbance was read as above, (AT=0) defining absorbance for initial cell number used as baseline in GI50 determinations and (Amin) defining absorbance for media alone used as baseline in LC50 determinations.\n(§3) GI50 (dose for 50% inhibition of cell proliferation)\n(§4) LC50 (dose for 50% cell death)\n(§5) 50=100×[(ATest−Amin)/(AT=0−Amin)]"}, "[2]": {"system": "caspase activity, T47D cells", "experiment": "Caspase induction and its inhibition by caspase inhibitor (Example 97), T47D", "format": "cell-based, human", "design": "key to Inhibition of caspase activity by Inhibitor: The caspase activity detected was inhibited by the caspase inhibitor (+)", "method": "(§6) T47D, ZR-75, PC3, SHP-77 and A-549 cells were maintained and harvested as described in Example 90. Cells were added to 96-well plates as described in Example 90. The cells were treated with 10 μM gambogic acid, in the presence and in the absence of 10 μM caspase inhibitor cbz-Val-Asp-fmk (Cytovia, Inc.; WO99/18781). The plate was incubated up to 24 h at 37° C in a 5% CO2-95% humidity incubator. Caspase activity was determined by addition of a fluorogenic substrate as described in Example 90.\n(§7) Gambogic acid induced caspase activity in a ratio of greater than 2.5 (+) above untreated cell levels in all the tested cancer cell lines (Table IV). The caspase activity detected was inhibited by the caspase inhibitor (+), confirming that the fluorescent signal was due to caspase activity."}, "[3]": {"system": "Jurkat T leukemia cells", "experiment": "Apoptotic morphology in Jurkat cells", "format": "cell-based", "method": "Jurkat T leukemia cells were grown in RPMI 1640 media (Life Technologies, Inc.)+10% FCS (Sigma Chemical Company) in a 5% CO2-95% humidity incubator at 37° C., and maintained at a cell density between 4 and 8×10^5 cells/ml. Cells were harvested at 200× g and resuspended at 1-2×10^6 cells/ml into RPMI 1640 media+10% FCS, and 3 ml of the cells was dispensed in each of three wells of a 6-well plate. One of the wells was treated with 10 μM caspase inhibitor cbz-Val-Asp-fink (Cytovia, Inc.; WO99/18781) and the plate was incubated at 37° C. in a 5% CO2-95% humidity incubator for 1 h prior to addition of gambogic acid. The wells with and without the caspase inhibitor were treated with 10 μM gambogic acid. The third well was treated with solvent (control cells). The plate was incubated at 37° C. in a 5% CO2-95% humidity incubator.\nAt 30 min. after addition of gambogic acid an aliquot of cells from each well was taken into the capillary slides and observed under a phase-contrast microscope."}, "[4]": {"system": "ZR-75-1 cells", "experiment": "Inhibition of cell proliferation (GI50) and cell death (LC50), ZR-75-1", "format": "cell-based", "conditions": "ZR-75-1, 48 h; read-out: GI50 (dose for 50% inhibition of cell proliferation)", "method": "as §1, §2, §3, §4, §5"}, "[5]": {"system": "caspase activity, SHP-77 cells", "experiment": "Caspase induction and its inhibition by caspase inhibitor (Example 97), SHP-77", "format": "cell-based, human", "design": "key to Inhibition of caspase activity by Inhibitor: The caspase activity detected was inhibited by the caspase inhibitor (+)", "method": "as §6, §7"}, "[6]": {"system": "human non-small cell lung cancer cell line A-549", "experiment": "Inhibition of cell proliferation (GI50) and cell death (LC50), A-549", "format": "cell-based", "conditions": "A-549, 48 h; read-out: GI50 (dose for 50% inhibition of cell proliferation)", "method": "as §1, §2, §3, §4, §5"}, "[7]": {"system": "poly(ADP)ribose polymerase (PARP) cleavage, HL-60 cells", "experiment": "PARP cleavage western blot, HL-60 cells", "format": "cell-based, human", "conditions": "2.5 μM, 2 h (FIG. 5B)", "method": "Cleavage of the enzyme poly(ADP)ribose polymerase (PARP) by caspase-3 and related proteases is considered to be one of the molecular hallmarks of caspase-mediated apoptosis. Therefore, the ability of gambogic acid to induce PARP cleavage in four different human tumor cell lines (Jurkat cells, HL-60 cells, T47D cells and PC3 cells) was determined.\nCells were cultured in complete growth medium containing 10% FBS and treated with gambogic acid at concentrations of 2.5 μM or 5 μM for 2 to 4 h. Control cultures were treated with a drug vehicle (DMSO), or the well-characterized apoptosis inducer, staurosporine. At the end of the apoptosis induction period, the cells were harvested, washed once with PBS, quick-frozen on dry ice, and stored at −80° C. The cells were then lysed in a standard immunoblotting lysis buffer and samples of the lysates were electrophoresed on 4% to 20% gradient polyacrylamide gels. The proteins in the gels were then transferred to PVDF membranes and probed with a commercially-available rabbit polyclonal antibody to PARP."}, "[8]": {"system": "PC-3 cells", "experiment": "Inhibition of cell proliferation (GI50) and cell death (LC50), PC-3", "format": "cell-based", "conditions": "PC-3, 48 h; read-out: GI50 (dose for 50% inhibition of cell proliferation)", "method": "as §1, §2, §3, §4, §5"}, "[9]": {"system": "MRC-5 cells", "experiment": "Inhibition of cell proliferation (GI50) and cell death (LC50), MRC-5", "format": "cell-based", "conditions": "MRC-5, 48 h", "method": "as §1, §2, §3, §4, §5"}, "[10]": {"system": "caspase activity, A-549 cells", "experiment": "Caspase induction and its inhibition by caspase inhibitor (Example 97), A-549", "format": "cell-based, human", "design": "key to Inhibition of caspase activity by Inhibitor: The caspase activity detected was inhibited by the caspase inhibitor (+)", "method": "as §6, §7"}, "[11]": {"system": "HEL cells", "conditions": "reported by Asano et al., Phytochemistry 41:815-820 (1996); cited from earlier work"}, "[12]": {"system": "human prostate cancer cell line DU-145", "experiment": "Inhibition of cell proliferation (GI50) and cell death (LC50), DU-145", "format": "cell-based", "conditions": "DU-145, 48 h; read-out: GI50 (dose for 50% inhibition of cell proliferation)", "method": "as §1, §2, §3, §4, §5"}, "[13]": {"conditions": "read-out: GI50 (dose for 50% inhibition of cell proliferation)"}, "[14]": {"conditions": "read-out: LC50 (dose for 50% cell death)"}}}
{"compound": "CC(C)=CCC[C@]1(C)C=Cc2c(O)c3c(c(CC=C(C)C)c2O1)O[C@]12C(=C[C@@H]4C[C@H]1C(C)(C)O[C@@]2(C/C=C(/C)C(=O)O)C4=O)C3=O", "note": "[Example 1, Gambogic Acid]", "values": [{"measurement": "GI50", "setting": "[1]; [13]", "result": 500, "unit": "nM"}, {"measurement": "CC50", "setting": "[1]; [14]", "result": 700, "unit": "nM"}, {"measurement": "Inhibition of caspase activity by Inhibitor", "setting": "[2]; 10 μM gambogic acid with 10 μM caspase inhibitor cbz-Val-Asp-fmk", "result": "+"}, {"measurement": "Caspase activity", "setting": "[2]; 10 μM gambogic acid, up to 24 h", "result": "+ (Gambogic acid induced caspase activity in a ratio of greater than 2.5 (+) above untreated cell levels)"}, {"measurement": "Cell morphology of Jurkat cells in presence of caspase inhibitor", "setting": "[3]; 10 μM gambogic acid, 30 min, with 10 μM caspase inhibitor cbz-Val-Asp-fink (FIG. 3C)", "result": "prevented the morphological changes"}, {"measurement": "Cell morphology of Jurkat cells", "setting": "[3]; 10 μM, 30 min (FIG. 3B)", "result": "blebbing and cellular fragmentation"}, {"measurement": "GI50", "setting": "[4]", "result": 400, "unit": "nM"}, {"measurement": "Inhibition of caspase activity by Inhibitor", "setting": "[5]; SHP-77, 10 μM gambogic acid with 10 μM caspase inhibitor cbz-Val-Asp-fmk", "result": "+"}, {"measurement": "Caspase activity", "setting": "[5]; SHP-77, 10 μM gambogic acid, up to 24 h", "result": "+ (Gambogic acid induced caspase activity in a ratio of greater than 2.5 (+) above untreated cell levels)"}, {"measurement": "GI50", "setting": "[6]", "result": 800, "unit": "nM"}, {"measurement": "PARP cleavage", "setting": "[7]", "result": "almost complete PARP cleavage"}, {"measurement": "GI50", "setting": "[8]", "result": 500, "unit": "nM"}, {"measurement": "GI50", "setting": "[9]; [13]", "result": 400, "unit": "nM"}, {"measurement": "CC50", "setting": "[9]; [14]", "result": 500, "unit": "nM"}, {"measurement": "Inhibition of caspase activity by Inhibitor", "setting": "[10]; A-549, 10 μM gambogic acid with 10 μM caspase inhibitor cbz-Val-Asp-fmk", "result": "+"}, {"measurement": "Caspase activity", "setting": "[10]; A-549, 10 μM gambogic acid, up to 24 h", "result": "+ (Gambogic acid induced caspase activity in a ratio of greater than 2.5 (+) above untreated cell levels)"}, {"measurement": "Cytotoxicity to HEL cells", "setting": "[11]", "result": "cytotoxic"}, {"measurement": "GI50", "setting": "[12]", "result": 500, "unit": "nM"}]}
